Test results from patent US8137919B2 (Montefiore Medical Center, priority 2008, dated 2012).

What was measured:
Assay type in all cases: cell-based
SW403 cells = assay: Apoptosis, PI staining and FACS; settings: 5 microMolar, 72 hours treatment
Method: FIG. 4. […] Cell cycle distribution and apoptosis was assessed by PI staining and FACS analysis. Values shown are mean±SEM, n=3, #P<0.05.

[1] = tested on: cetuximab sensitive and resistant cell lines; assay: Growth response to EGF, MTT assay; settings: 0.5 or 5 ng/ml EGF
Method: Cell growth was assayed by MTT assay. Values shown are mean±SEM from a representative experiment, #p<0.05. Experiments were repeated 3 separate times.
(§1) For each cell line, one plate was harvested for determination of t=0 absorbance values. Viable cells were determined 72 h post-treatment using the MTT assay by measurement of absorbance at 570 nm. The relative rate of cell growth for each cell line was factored into the analysis by subtracting the absorbance at time zero from both the control and treatment groups. All the experiments were replicated a minimum of 3 times. For determination of sensitivity to EGF, cells were serum starved for 4 h then treated with 0, 0.5 or 5 ng/ml EGF for 24-72 h.

[2] = tested on: LIM2405, HCT15, and HCT116 (cetuximab resistant cell lines); assay: Proliferative response to EGF, S-phase; settings: 24 h post EGF treatment (0.5 ng/ml), serum-free
Method: as §1
(§2) To test this, the proliferative response of the 3 most cetuximab-sensitive and 3 most cetuximab-resistant cell lines to exogenous EGF-treatment was examined under serum-free conditions (FIG. 6). […] These findings indicate that a subset of colon tumors exist that are dependent upon ligand activation of EGFR for their growth, and it is these cell lines that are growth inhibited by blockade of ligand binding to the EGFR.

[3] = tested on: GEO, LIM1215, and SW403 (cetuximab sensitive cell lines); assay: Proliferative response to EGF, S-phase; settings: 24 h post EGF treatment (0.5 ng/ml), serum-free
Method: as §1, §2

Compound	apoptosis (SW403 cells)	cell growth (MTT) [1]	change in S-phase [2]	change in S-phase [3]
O=c1[nH]cc(F)c(=O)[nH]1 [5FU, 5-fluoruracil]	approximately 50%			
EGF: EGFR activator, EGFR ligand		preferentially increased growth of the cetuximab sensitive cell lines	not	significant increase
